From patent publication US20240299321A1, “METHODS TO SENSITIZE CANCER CELLS AND STANDARDIZED SCREENING ASSAY FOR IMMUNOTHERAPY” (THE TRUSTEES OF INDIANA UNIVERSITY, priority 2020, published 2024)

Legend:
[1] = test system: EO771 tumors; assay: EO771 orthotopic breast tumor model in immunocompetent C57BL/6 mice; assay type: in vivo; conditions: for tumor infiltration of T cells (total CD3+, CD4+ and CD8+) / expression of GZMB, IFNγ and TNFα in the tumor-infiltrated CD8+ T cells: 20 mg kg-1; for tumor infiltration of T cells (total CD3+, CD4+ and CD8+): flow cytometry; for tumor growth and weight: 20 mg kg-1 i.p., 3 times/week for 2 weeks; for tumor growth and weight / tumor cell proliferation (Ki67+): vs control group; for numbers of apoptotic tumor cells (cleaved Caspase 3+) / tumor cell proliferation (Ki67+): IHC of tumor tissue; for expression of GZMB, IFNγ and TNFα in the tumor-infiltrated CD8+ T cells: FIG. 3E; for anti-tumor activity after depletion of CD4+ T cells: anti-CD4 10 mg kg-1 + drug 20 mg kg-1; for anti-tumor activity after depletion of CD8+ T cells: anti-CD8 10 mg kg-1 + drug 20 mg kg-1; for IFNγ and TNFα secretion by CD8+ T cells of drug-treated tumors: upon stimulation (PMA and ionomycin)
Experimental: T cell effector function analysis: We measured cytokine and cytolytic granule production (IFNγ, GZMB and TNFα) of CD8+ T cells from mouse tumor samples and tumor organoid-T cell co-culture. Briefly, CD8+ T cells were placed into the 24-well plate at 1×10^6 cells/well, stimulated with 1 μM ionomycin and 50 ng ml-1 phorbol 12-myristate 13-acetate (PMA) (Sigma-Aldrich) for 4 h, in the presence of 5 μg ml-1 Brefeldin A (BFA), with the purpose to amplify the expression of intracellular cytokines61. The cells were stained with APC/Cy7-conjugated anti-CD8a (Biolegend) for 15 min and then fixed by 4% PFA. After washing, cells were stained with PerCP/Cy7-conjugated anti-GZMB, APC-conjugated anti-IFNγ and PE-conjugated anti-TNFα (Biolegend) for 15 min. In flow cytometric analyses, T cells stained with isotype control antibodies were used as negative controls for gating the cytokine or granule-producing cells. For T cells from tumor organoid-T cell co-culture, tumor organoids were first digested into single cells with TrypLE Express at 37° C. before APC/Cy7-conjugated anti-CD8a staining. In the IFNγ and TNFα secretion assay (Biolegend), T cells were stimulated with ionomycin and PMA without the presence of BFA. The media were collected for ELISA assay.
Immunohistochemistry (IHC) and Immunofluorescence (IF) analysis of tumor organoids: Tumor organoids were gently centrifuged at 100 rcf from organoid culture medium and then embedded in 2% agar. Tumor organoids were fixed in 4% paraformaldehyde solution for overnight at room temperature. The samples were replaced with 70% ethanol and later embedded in paraffin blocks. Paraffin sections were cut at 5 μm thickness, attached on slides, heated at 60° C. for 1 h and then overnight at 37° C. The slides were stained with hematoxylin and eosin (H&E). IHC staining follows the protocol described62. Mouse-specific antibodies for CD8α (Cell Signaling Technology, clone D4W2Z, 1:400 dilution), cleaved caspase3 (Cell Signaling Technology, clone D175, 1:400 dilution) and Ki67 (Cell Signaling Technology, clone D3B5, 1:400 dilution) were used for IHC staining. The DAB peroxidase substrate kit (Vector laboratories Inc.) was used to visualize the antibodies. For IF analysis, the sample slides were blocked 3% BSA for 40 min after hydration. The slides were stained with primary antibodies including EpCAM (Abcam, 1:400 dilution), FITC-conjugated anti-α-SMA (Genetex, 1:400 dilution) and AF594-conjugated anti-CD31 (Biolegend) for 1 h. For EpCAM staining, the slide was further stained with secondary antibody Alexa Fluor 647-conjugated anti-rabbit IgG (Biolegend, 1:200) for 40 min. The fluorescence images were captured under a Leica DM4B microscope.
Animal studies: All animal experiments were performed in accordance with the National Institutes of Health's Animal Use Guidelines and protocols approved by the Animal Care and Use Committee of Indiana University School of Medicine. To examine the tumorigenic potential of tumor organoids, tumor organoids with different sizes (diameter of 30-70, 70-150, and 150-500 μm) were orthotopically injected into fat pad of the 4th mammary gland in female C57BL/6 mice. Each mouse was injected with a total of 2×10^5 tumor cells. 5 mice were used in each group. Tumors were measured in two dimensions using a manual caliper. Tumor volume was calculated using the following formula: V=0.5×length×width×width. Tumor volume was measured every 3 days. Tumors were harvested 22 days after injection. The tumor growth, volume and weight were analyzed. To evaluate the anti-tumor effect of drugs in immunocompetent C57BL/6 mice and immunodeficient nude (NU/J) mice, 2×10^5 EO771 cells were orthotopically injected into fat pad of the 4th mammary gland in female mice. […]

[2] = test system: mouse melanoma model; conditions: reported; cited from earlier work
[3] = test system: EO771 tumors; assay: EO771 orthotopic breast tumor model in immunodeficient nude (NU/J) mice; assay type: in vivo; conditions: for tumor growth and weight: immune-deficient nude mice, 20 mg kg-1, vs control group; for size of gross dissected mammary EO771 tumors: nude mice, 20 mg kg−1, harvested day 18
Experimental: Animal studies: All animal experiments were performed in accordance with the National Institutes of Health's Animal Use Guidelines and protocols approved by the Animal Care and Use Committee of Indiana University School of Medicine. […] Each mouse was injected with a total of 2×10^5 tumor cells. 5 mice were used in each group. Tumors were measured in two dimensions using a manual caliper. Tumor volume was calculated using the following formula: V=0.5×length×width×width. Tumor volume was measured every 3 days. Tumors were harvested 22 days after injection. The tumor growth, volume and weight were analyzed. To evaluate the anti-tumor effect of drugs in immunocompetent C57BL/6 mice and immunodeficient nude (NU/J) mice, 2×10^5 EO771 cells were orthotopically injected into fat pad of the 4th mammary gland in female mice. […] For CD4/CD8 depletion experiment, the tumor-bearing mice were randomly divided into 7 groups (n=8 mice/group) including isotype control (rat IgG2a, Bioxcell), isotype control+CUDC-101, isotype control+BML-210, anti-CD8 (Clone: 53-6.72, Bioxcell)+CUDC-101, anti-CD8+BML-210, anti-CD4 (Clone: GK1.5, Bioxcell)+CUDC-101, or anti-CD4+BML-210. Intraperitoneal injection of inhibitors (20 mg kg-1) and anti-CD4/CD8 (10 mg kg-1) were administrated to the mice by 3 times/week for 2 weeks. The tumors were harvested at day 18 (NU/J mice) or day 28 (C57BL/6 mice) for further analyses. In immune checkpoint blockade experiment, 2×10^5 EO771 cells were orthotopically injected into fat pad of the 4th mammary gland in female C57BL/6 mice. From day 10, the tumor-bearing mice were randomly divided into each treatment group (n=8 mice/group), and the mice were treated with IgG2a isotype control antibody (clone 2A3, Bioxcell), BML-210 (20 mg kg-1), anti-PD-1 (200 μg/mouse, Bioxcell), or BML-210 and anti-PD-1 combo. The treatment was done 3 times/week for 2 weeks. Tumors were harvested at day 26 post injection and the tumors were analyzed by IHC staining, flow cytometry, ELISA or CyTOF assay.

[4] = Organ damage in treated mice; assay type: in vivo
[5] = test system: MDA-MB-468 cells; assay: Gene expression in MDA-MB-468 cells (quantitative RT-PCR); assay type: cell-based, human; conditions: BML-210 1.0 μM, FIG. 4B

Structure (SMILES)	tumor infiltration of T cells (total CD3+, CD4+ and CD8+) [1]	tumor growth and weight [1]	numbers of apoptotic tumor cells (cleaved Caspase 3+) [1]	tumor cell proliferation (Ki67+) [1]	cytotoxicity of the CD8+ T cells in the tumors ([1]; immune analyses of treated tumors)	CD8+ T cell infiltration and anti-tumor response [2]	expression of GZMB, IFNγ and TNFα in the tumor-infiltrated CD8+ T cells [1]	anti-tumor activity after depletion of CD4+ T cells [1]	anti-tumor activity after depletion of CD8+ T cells [1]	IFNγ and TNFα secretion by CD8+ T cells of drug-treated tumors [1]	tumor growth and weight [3]	size of gross dissected mammary EO771 tumors [3]	visible damages in the heart, kidney, spleen, liver and lung [4]	anti-tumor activity relative to the other candidates ([1]; in vitro and in vivo assays)	expression of antigen processing and presentation DEGs (qPCR) [5]
c1ccc([C@@H]2C[C@H]2NC2CCNCC2)cc1 [GSK-LSD1]	higher tumor infiltration of T cells	markedly suppressed	increased	much lower	enhanced cytotoxicity of the CD8+ T cells	promote CD8+ T cell infiltration and anti-tumor response									
C#Cc1cccc(Nc2ncnc3cc(OC)c(OCCCCCCC(=O)NO)cc23)c1 [CUDC-101]	higher tumor infiltration	significantly suppressed	increased	markedly lower			up-regulated	did not have much effect	abolished the anti-tumor activity	secreted more IFNγ and TNFα	No significant differences	no significant difference in size	No visible damages		
Nc1ccccc1NC(=O)CCCCCCC(=O)Nc1ccccc1 [BML-210]	higher tumor infiltration	significantly suppressed	increased	markedly lower			up-regulated	did not have much effect	abolished the anti-tumor activity	secreted more IFNγ and TNFα	No significant differences	no significant difference in size	No visible damages	most potent anti-tumor activity	most of DEGs had higher expression levels
